Measurements published in patent publication US5977063A, “Alkylated hexapeptides” (Eli Lilly and Company, priority 1998, dated 1999).

Assays:
Type in all cases: cell-based
[1] = tested on: Staphylococcus epidermidis 270; experiment: MIC, standard broth micro-dilution assay, SE 270; parameters: unit not given here
Method: (§1) The antibacterial efficacy of the present compounds is illustrated by Table II. The minimal inhibitory concentrations (MICs) were determined using a standard broth micro-dilution assay.

[2] = tested on: Staphylococcus aureus 446; experiment: MIC, standard broth micro-dilution assay, SA 446; parameters: unit not given here
Method: as §1

[3] = tested on: Staphylococcus haemolyticus 415; experiment: MIC, standard broth micro-dilution assay, SH 415; parameters: unit not given here
Method: as §1

[4] = tested on: Enterococcus faecium and faecalis (RESISTANT); details: geometric mean of 4-6 isolates
Method: as §1

[5] = tested on: Staphylococcus aureus 489; experiment: MIC, standard broth micro-dilution assay, SA 489; parameters: unit not given here
Method: as §1

[6] = tested on: Staphylococcus haemolyticus 105; experiment: MIC, standard broth micro-dilution assay, SH 105; parameters: unit not given here
Method: as §1

[7] = tested on: Staphylococcus aureus 447; experiment: MIC, standard broth micro-dilution assay, SA 447; parameters: unit not given here
Method: as §1

[8] = tested on: Streptococcus pyogenes C203; experiment: MIC, standard broth micro-dilution assay, SPY C203; parameters: unit not given here
Method: as §1

[9] = tested on: Streptococcus pneumoniae P1; experiment: MIC, standard broth micro-dilution assay, SPN P1; parameters: unit not given here
Method: as §1

[10] = tested on: Enterococcus faecium and faecalis (SENSITIVE); experiment: MIC, standard broth micro-dilution assay, SENSITIVE enterococci; parameters: unit not given here; details: geometric mean of 4-6 isolates
Method: as §1

Compound | Minimal Inhibitory Concentration (MIC) SE 270 [1] | Minimal Inhibitory Concentration (MIC) SA 446 [2] | Minimal Inhibitory Concentration (MIC) SH 415 [3] | Minimal Inhibitory Concentration (MIC) RESISTANT [4] | Minimal Inhibitory Concentration (MIC) SA 489 [5] | Minimal Inhibitory Concentration (MIC) SH 105 [6] | Minimal Inhibitory Concentration (MIC) SA 447 [7] | Minimal Inhibitory Concentration (MIC) SPY C203 [8] | Minimal Inhibitory Concentration (MIC) SPN P1 [9] | Minimal Inhibitory Concentration (MIC) SENSITIVE [10]
CCCCCCCCOc1ccc(CN[C@H]2C(=O)N[C@@H](CC(N)=O)C(=O)N[C@H]3C(=O)N[C@H]4C(=O)N[C@H](C(=O)N[C@H](C(=O)O)c5cc(O)cc(O)c5-c5cc4ccc5O)[C@H](O[C@H]4C[C@](C)(N)[C@@H](O)[C@H](C)O4)c4ccc(c(Cl)c4)Oc4cc3cc(c4O[C@@H]3O[C@H](CO)[C@@H](O)[C@H](O)[C@H]3O[C@H]3C[C@](C)(N)[C@@H](O)[C@H](C)O3)Oc3ccc(cc3Cl)[C@H]2O)cc1 [Example 23, N^1 -(p-(n-OCTYLOXY)-BENZYL)DESLEUCYL-A82846B] | 4 | 8 | 8 | 11 | 4 | 4 | 4 | 0.25 | 1 | 9.2
C[C@@H]1O[C@@H](O[C@@H]2c3ccc(c(Cl)c3)Oc3cc4cc(c3O[C@@H]3O[C@H](CO)[C@@H](O)[C@H](O)[C@H]3O[C@H]3C[C@](C)(NCc5ccc(O)cc5)[C@@H](O)[C@H](C)O3)Oc3ccc(cc3Cl)[C@@H](O)[C@@H](NCc3ccc(O)cc3)C(=O)N[C@@H](CC(N)=O)C(=O)N[C@H]4C(=O)N[C@H]3C(=O)N[C@@H]2C(=O)N[C@H](C(=O)O)c2cc(O)cc(O)c2-c2cc3ccc2O)C[C@](C)(N)[C@H]1O [Example 9, N^1,N^DISACC -BIS(p-HYDROXYBENZYL)-DESLEUCYL-A82846B] | 32 | 16 | 32 | > 128 | 16 | 32 | 16 | 16 | 32 | > 128
C[C@@H]1O[C@@H](O[C@@H]2c3ccc(c(Cl)c3)Oc3cc4cc(c3O[C@@H]3O[C@H](CO)[C@@H](O)[C@H](O)[C@H]3O[C@H]3C[C@](C)(NCCCCCCCCCCc5ccccc5)[C@@H](O)[C@H](C)O3)Oc3ccc(cc3Cl)[C@@H](O)[C@@H](NCCCCCCCCCCc3ccccc3)C(=O)N[C@@H](CC(N)=O)C(=O)N[C@H]4C(=O)N[C@H]3C(=O)N[C@@H]2C(=O)N[C@H](C(=O)O)c2cc(O)cc(O)c2-c2cc3ccc2O)C[C@](C)(N)[C@H]1O [Example 16, N^1,N^DISACC -BIS(10 PHENYL-n-DECYL)-DESLEUCYL-A82846B] | > 64 | > 64 | > 64 | > 128 | 64 | > 64 | > 64 | 8 | 16 | > 11
C[C@@H]1O[C@@H](O[C@@H]2c3ccc(c(Cl)c3)Oc3cc4cc(c3O[C@@H]3O[C@H](CO)[C@@H](O)[C@H](O)[C@H]3O[C@H]3C[C@](C)(NCc5ccc(-c6ccc(Cl)cc6)cc5)[C@@H](O)[C@H](C)O3)Oc3ccc(cc3Cl)[C@@H](O)[C@@H](NCCCCCCc3ccccc3)C(=O)N[C@@H](CC(N)=O)C(=O)N[C@H]4C(=O)N[C@H]3C(=O)N[C@@H]2C(=O)N[C@H](C(=O)O)c2cc(O)cc(O)c2-c2cc3ccc2O)C[C@](C)(N)[C@H]1O [Example 28, N^1 -(6-PHENYL-n-HEXYL)-N^DISACC -(p-(p-CHLOROPHENYL)BENZYL)DESLEUCYL-A82846B] | 4 | 8 | 2 | 6.7 | 8 | 4 | 8 | 4 | 16 | 7
C[C@@H]1O[C@@H](O[C@H]2[C@H](Oc3c4cc5cc3Oc3ccc(cc3Cl)[C@@H](O[C@H]3C[C@](C)(N)[C@@H](O)[C@H](C)O3)[C@@H]3NC(=O)[C@H](NC(=O)[C@@H]5NC(=O)[C@H](CC(N)=O)NC(=O)[C@H](NCc5ccc(-c6ccccc6)cc5)[C@H](O)c5ccc(c(Cl)c5)O4)c4ccc(O)c(c4)-c4c(O)cc(O)cc4[C@@H](C(=O)O)NC3=O)O[C@H](CO)[C@@H](O)[C@@H]2O)C[C@](C)(N)[C@H]1O [Example 3, N^1- (p-PHENYLBENZYL)-DESLEUCYL-A82846B] | 8 | 8 | 16 | > 128 | 8 | 8 | 8 | ≤ .06 | ≤ .06 | 21
CCCCCCN[C@H]1C(=O)N[C@@H](CC(N)=O)C(=O)N[C@H]2C(=O)N[C@H]3C(=O)N[C@H](C(=O)N[C@H](C(=O)O)c4cc(O)cc(O)c4-c4cc3ccc4O)[C@H](O[C@H]3C[C@](C)(N)[C@@H](O)[C@H](C)O3)c3ccc(c(Cl)c3)Oc3cc2cc(c3O[C@@H]2O[C@H](CO)[C@@H](O)[C@H](O)[C@H]2O[C@H]2C[C@](C)(NCc3ccc(-c4ccccc4)cc3)[C@@H](O)[C@H](C)O2)Oc2ccc(cc2Cl)[C@H]1O [Example 11, N^1 -n-HEXYL-N^DISACC -(p-PHENYLBENZYL)-DESLEUCYL-A82846B] | 0.5 | 1 | 1 | 27 | 1 | 2 | 0.5 | 0.125 | 0.125 | 11
C[C@@H]1O[C@@H](O[C@H]2[C@H](Oc3c4cc5cc3Oc3ccc(cc3Cl)[C@@H](O[C@H]3C[C@](C)(N)[C@@H](O)[C@H](C)O3)[C@@H]3NC(=O)[C@H](NC(=O)[C@@H]5NC(=O)[C@H](CC(N)=O)NC(=O)[C@H](NCCCCCCc5ccccc5)[C@H](O)c5ccc(c(Cl)c5)O4)c4ccc(O)c(c4)-c4c(O)cc(O)cc4[C@@H](C(=O)O)NC3=O)O[C@H](CO)[C@@H](O)[C@@H]2O)C[C@](C)(N)[C@H]1O [Example 14, N^1 -(6-PHENYL-n-HEXYL)DESLEUCYL-A82846B] | 8 | 16 | 8 | > 50 | 8 | 8 | 8 | ≤ .06 | ≤ .06 | 37
C[C@@H]1O[C@@H](O[C@@H]2c3ccc(c(Cl)c3)Oc3cc4cc(c3O[C@@H]3O[C@H](CO)[C@@H](O)[C@H](O)[C@H]3O[C@H]3C[C@](C)(NCc5ccc(-c6ccccc6)cc5)[C@@H](O)[C@H](C)O3)Oc3ccc(cc3Cl)[C@@H](O)[C@@H](NCc3ccc(-c5ccccc5)cc3)C(=O)N[C@@H](CC(N)=O)C(=O)N[C@H]4C(=O)N[C@H]3C(=O)N[C@@H]2C(=O)N[C@H](C(=O)O)c2cc(O)cc(O)c2-c2cc3ccc2O)C[C@](C)(N)[C@H]1O [Example 4, N^1,N^DISACC -BIS(p-PHENYLBENZYL)-DESLEUCYL-A82846B] | 2 | 4 | 2 | 53 | 2 | 2 | 2 | ≤ .06 | ≤ .06 | 21
CC1OC(OC2c3ccc(c(Cl)c3)Oc3cc4cc(c3OC3OC(CO)C(O)C(O)C3OC3CC(C)(N)C(O)C(C)O3)Oc3ccc(cc3Cl)C(O)C(NCCCCCCCCCCCCc3ccccc3)C(=O)NC(CC(N)=O)C(=O)NC4C(=O)NC3C(=O)NC2C(=O)NC(C(=O)O)c2cc(O)cc(O)c2-c2cc3ccc2O)CC(C)(N)C1O (centres unmarked) [Example 1, N^1 -(12-PHENYL-n-DODECYL)DESLEUCYL-A82846B] | 4 | 8 | 8 | 13 | 2 | 4 | 2 | 0.125 | – | 9.2
